Assay results as given in patent US12054494B2, “Compound with anticancer activity” (KYOWA KIRIN CO., LTD., priority 2018, dated 2024).

system: SU-DHL-4 cells; assay: Inhibitory effect on cell viability (Cell Counting Kit-8); format: cell-based; settings: Homo sapiens, 72 hours culture with test compound, concentration showing 90% inhibition rate of cell viability
Method in brief: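 IC90 corresponds to 90% loss of viability, measured as CCK-8 absorbance at 450 nm (2-3 h colour development). Compounds in 9 dilutions (0.1% DMSO) were applied for 72 h at 37° C to SU-DHL-4 lymphoma cells seeded at 2000/well in RPMI1640/10% FBS after 18-25 h preculture.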

Row | Structure (SMILES) | IC90 [nM]
1 | CCC(=O)N1c2ccccc2[C@H](Nc2ccc(NS(=O)(=O)c3cccc(NC(=O)c4ccc(N[C@@H]5C[C@H](C)N(C(=O)CC)c6ccccc65)cc4)c3)cc2)C[C@@H]1C (relative stereo) [Compound 4c, 4-{[(2S,4R)-2-Methyl-1-propionyl-1,2,3,4-tetrahydroquinolin-4-yl]amino}-N-{3-[N-(4-{[(2S*,4R*)-2-methyl-1-propionyl-1,2,3,4-tetrahydroquinolin-4-yl]amino}phenyl)sulfamoyl]phenyl}benzamide] | 4.03
2 | CCC(=O)N1c2ccccc2[C@H](Nc2ccc(C(=O)NCc3ccc(-c4ccc(C5=NCc6nnc(C)n6-c6sc(C)c(C)c65)cc4)s3)cc2)C[C@@H]1C [Compound 14j, 4-(((2S,4R)-2-Methyl-1-propionyl-1,2,3,4-tetrahydroquinolin-4-yl)amino)-N-((5-(4-(2,3,9-trimethyl-6H-thieno[3,2-f][1,2,4]triazolo[4,3-a][1,4]diazepin-4-yl)phenyl)thiophen-2-yl)methyl)benzamide] | 0.74
3 | CCC(=O)N1c2ccccc2[C@H](Nc2ccc(NC(=O)C#CCNC(=O)c3ccc(C4=NCc5nnc(C)n5-c5sc(C)c(C)c54)cc3)cc2)C[C@@H]1C [Compound 14i, N-(4-((4-(((2S,4R)-2-Methyl-1-propionyl-1,2,3,4-tetrahydroquinolin-4-yl)amino)phenyl)amino)-4-oxobut-2-yn-1-yl)-4-(2,3,9-trimethyl-6H-thieno[3,2-f][1,2,4]triazolo[4,3-a][1,4]diazepin-4-yl)benzamide] | 0.03
4 | CCC(=O)N1c2ccccc2[C@H](Nc2ccc(NC(=O)NCCNC(=O)c3ccc(N[C@@H]4C[C@H](C)N(C(=O)CC)c5ccccc54)cc3)cc2)C[C@@H]1C (relative stereo) [Compound 6l, 4-(((2S,4R)-2-Methyl-1-propionyl-1,2,3,4-tetrahydroquinolin-4-yl)amino)-N-(2-(3-(4-(((2S*,4R*)-2-methyl-1-propionyl-1,2,3,4-tetrahydroquinolin-4-yl)amino)phenyl)ureido)ethyl)benzamide] | 0.35
5 | CCC(=O)N1c2ccccc2[C@H](Nc2ccc(NC(=O)[C@@H](NC(=O)c3ccc(N[C@@H]4C[C@H](C)N(C(=O)CC)c5ccccc54)cc3)C(C)C)cc2)C[C@@H]1C (relative stereo) [Compound 2e, N-{(S)-3-Methyl-1-[(4-{[(2S*,4R*)-2-methyl-1-propionyl-1,2,3,4-tetrahydroquinolin-4-yl]amino}phenyl)amino]-1-oxobutan-2-yl}-4-{[(2S,4R)-2-methyl-1-propionyl-1,2,3,4-tetrahydroquinolin-4-yl]amino}benzamide] | 16.3
6 | CCC(=O)N1c2ccccc2[C@H](Nc2ccc(-c3cnn(CC(=O)Nc4ccc(C5=NCc6nnc(C)n6-c6sc(C)c(C)c65)cc4)c3)cc2)C[C@@H]1C [Compound 14a, 2-(4-(4-(((2S,4R)-2-Methyl-1-propionyl-1,2,3,4-tetrahydroquinolin-4-yl)amino)phenyl)-1H-pyrazol-1-yl)-N-(4-(2,3,9-trimethyl-6H-thieno[3,2-f][1,2,4]triazolo[4,3-a][1,4]diazepin-4-yl)phenyl)acetamide] | 0.04
7 | CCC(=O)N1c2ccccc2[C@H](Nc2ccc(NC(=O)CCS(=O)(=O)Nc3ccc(N[C@@H]4C[C@H](C)N(C(=O)CC)c5ccccc54)cc3)cc2)C[C@@H]1C [Compound 6b, N-(4-(((2S,4R)-2-Methyl-1-propionyl-1,2,3,4-tetrahydroquinolin-4-yl)amino)phenyl)-3-(N-(4-(((2S,4R)-2-methyl-1-propionyl-1,2,3,4-tetrahydroquinolin-4-yl)amino)phenyl)sulfamoyl)propanamide] | 0.1
8 | CCC(=O)N1c2ccccc2[C@H](Nc2ccc(NC(=O)CCNC(=O)c3ccc(N[C@@H]4C[C@H](C)N(C(=O)CC)c5ccccc54)cc3)cc2)C[C@@H]1C (relative stereo) [Compound 2f, 4-{[(2S,4R)-2-Methyl-1-propionyl-1,2,3,4-tetrahydroquinolin-4-yl]amino}-N-{3-[(4-{[(2S*,4R*)-2-methyl-1-propionyl-1,2,3,4-tetra hydroquinolin-4-yl]amino}phenyl)amino]-3-oxopropyl}benzamide] | 0.23
